Measured values published in patent publication US20250388582A1, “NOVEL BICYCLIC HETEROARYL COMPOUND AND USE THEREOF” (ILDONG PHARMACEUTICAL CO., LTD., priority 2022, published 2025).

Key:
[1] = target: T1, human GST-PIKFYVE (Homo sapiens, UniProt Q9Y2I7); assay: ADP-Glo kinase assay, enzyme inhibition activity against human PIKFYVE (Carna biosciences); assay type: biochemical; settings: inhibitory activity at final compound concentration 10 nM; 1 hour at room temperature
T1 construct: GST; purchased Carna biosciences 11-118
T1 sequence (Q9Y2I7 whole entry): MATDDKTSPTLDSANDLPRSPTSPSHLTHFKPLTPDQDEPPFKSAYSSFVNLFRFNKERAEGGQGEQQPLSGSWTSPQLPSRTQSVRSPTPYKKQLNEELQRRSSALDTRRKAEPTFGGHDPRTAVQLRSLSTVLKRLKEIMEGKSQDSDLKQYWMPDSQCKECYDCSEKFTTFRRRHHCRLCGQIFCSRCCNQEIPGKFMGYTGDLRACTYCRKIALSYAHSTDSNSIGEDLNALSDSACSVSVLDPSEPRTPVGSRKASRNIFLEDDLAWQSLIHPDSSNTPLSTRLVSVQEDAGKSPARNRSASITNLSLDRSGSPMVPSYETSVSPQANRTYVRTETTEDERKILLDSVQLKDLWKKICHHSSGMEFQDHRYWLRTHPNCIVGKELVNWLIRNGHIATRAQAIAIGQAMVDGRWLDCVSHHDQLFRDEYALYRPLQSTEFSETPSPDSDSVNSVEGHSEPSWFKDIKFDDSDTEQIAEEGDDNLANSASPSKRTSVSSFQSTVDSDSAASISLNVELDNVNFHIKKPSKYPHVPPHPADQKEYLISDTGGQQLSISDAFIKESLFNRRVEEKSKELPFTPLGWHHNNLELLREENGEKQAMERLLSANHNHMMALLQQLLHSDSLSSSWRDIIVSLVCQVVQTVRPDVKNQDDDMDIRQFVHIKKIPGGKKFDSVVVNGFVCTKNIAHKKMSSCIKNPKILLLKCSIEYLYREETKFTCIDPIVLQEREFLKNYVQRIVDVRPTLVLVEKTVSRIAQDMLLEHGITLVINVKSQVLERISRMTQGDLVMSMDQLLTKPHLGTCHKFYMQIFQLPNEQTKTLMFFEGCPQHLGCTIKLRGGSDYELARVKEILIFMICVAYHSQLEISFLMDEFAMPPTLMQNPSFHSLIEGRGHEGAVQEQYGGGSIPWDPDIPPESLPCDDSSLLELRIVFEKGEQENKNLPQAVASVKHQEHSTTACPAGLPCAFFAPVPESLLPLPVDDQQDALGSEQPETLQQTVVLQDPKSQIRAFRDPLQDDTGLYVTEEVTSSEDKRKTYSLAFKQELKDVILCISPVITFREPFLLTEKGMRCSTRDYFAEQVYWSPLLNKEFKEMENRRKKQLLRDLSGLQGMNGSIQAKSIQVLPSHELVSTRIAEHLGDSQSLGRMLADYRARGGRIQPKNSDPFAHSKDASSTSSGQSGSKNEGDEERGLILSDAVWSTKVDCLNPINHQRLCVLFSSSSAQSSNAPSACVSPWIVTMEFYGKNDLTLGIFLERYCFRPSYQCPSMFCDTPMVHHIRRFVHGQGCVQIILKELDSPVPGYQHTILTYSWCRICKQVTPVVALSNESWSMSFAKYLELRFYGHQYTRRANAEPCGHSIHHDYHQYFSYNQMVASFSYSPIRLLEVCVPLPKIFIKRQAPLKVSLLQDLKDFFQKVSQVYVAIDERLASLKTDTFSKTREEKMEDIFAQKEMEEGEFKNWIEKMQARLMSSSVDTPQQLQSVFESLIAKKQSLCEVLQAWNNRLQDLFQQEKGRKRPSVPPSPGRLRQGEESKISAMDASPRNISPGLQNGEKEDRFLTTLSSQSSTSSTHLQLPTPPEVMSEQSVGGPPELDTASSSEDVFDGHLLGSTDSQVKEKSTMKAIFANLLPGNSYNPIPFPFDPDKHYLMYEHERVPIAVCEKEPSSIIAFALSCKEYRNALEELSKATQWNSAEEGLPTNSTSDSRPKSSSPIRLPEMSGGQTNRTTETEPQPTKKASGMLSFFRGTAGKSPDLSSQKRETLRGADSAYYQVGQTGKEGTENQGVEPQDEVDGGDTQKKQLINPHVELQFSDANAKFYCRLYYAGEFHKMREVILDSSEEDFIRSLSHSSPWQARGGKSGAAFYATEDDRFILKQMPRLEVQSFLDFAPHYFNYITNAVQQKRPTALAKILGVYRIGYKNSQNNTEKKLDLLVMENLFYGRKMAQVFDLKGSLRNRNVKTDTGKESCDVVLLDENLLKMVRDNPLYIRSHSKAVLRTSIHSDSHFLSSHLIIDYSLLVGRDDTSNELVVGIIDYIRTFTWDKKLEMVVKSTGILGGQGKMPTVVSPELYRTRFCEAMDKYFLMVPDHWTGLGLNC
Description: The enzyme inhibition activity values for the compounds according to Examples against human PIKFYVE were calculated using the ADP-Glo™ kinase assay service of Carna biosciences, Inc. The enzyme activity evaluation method provided by Carna biosciences Inc., is shown below.
Enzyme inhibition activity was evaluated by reacting the compounds according to Examples with human GST-PIKFYVE (11-118, Carna biosciences), which was purified using glutathione Sepharose chromatography. The reaction buffer used was composed of 50 mmol/L MOPS, 1 mmol/L DTT, and pH 7.2, and all reactions of the test distilled water were performed in the buffer.
Compounds were prepared as solutions in 100% DMSO as 100× stocks and adjusted to have a final sample concentration of 10 nM.
The substrate-enzyme reaction for PIKFYVE was performed by mixing 5 μL human GST-PIKFYVE, 5 μL compounds according to Examples, 5 μL enzyme substrate, and 5 μL purified ATP and reacting for 1 hour at room temperature. After the substrate-enzyme reaction, 20 μL ADP-Glo™ Reagent was added and reacted at room temperature for 40 minutes, then 40 μL Kinase Detection Reagent was added and reacted at room temperature for 40 minutes.
After completion of the reaction, the degree of enzyme activity inhibition was measured by luminescence. The fluorescence of the enzyme activity in the solvent control group […] was set to 100%, and the fluorescence of the enzyme activity in the solvent control group without compound treatment was set to 0%. The inhibitory activity of each compound according to Examples was calculated based on these values.

[2] = target: T2, PIKFYVE (Homo sapiens, UniProt Q9Y2I7); assay: NanoBRET TE Intracellular Kinase Assay, interaction of PIKFYVE and compounds in HEK293 cells; assay type: cell-based; settings: IC50 class from BRET; HEK293 cells expressing PIKFYVE-NanoLuc; 2 hours incubation
T2 construct: host or cells: HEK293 (ATCC, CRL-1573)
T2 sequence (Q9Y2I7 whole entry): as above
Description: To predict the efficacy of the compounds according to Example on PIKFYVE in humans, the interaction between PIKFYVE and the compounds was tested using the HEK293 cell line derived from human embryonic kidney (ATCC, CRL-1573) via NanoBRETT TE Intracellular Kinase Assay Service of Carna biosciences Inc., (Japan). The evaluation method provided by Carna biosciences Inc., was shown below and the NanoBRET™ TE Intracellular Kinase Assay, K-8 Kit (Promega, CS1810C88) was used.
The HEK-293 cells cultured in Opti-MEM™ I Reduced Serum Medium (Thermo Fisher, 11058-021) were transfected with Transfection Carrier DNA (Promega, E4881), PIKFYVE-NanoLuc Fusion Vector (Promega, CS1810C225), and FuGENE HD Transfection Reagent (Promega, E2311) to produce cells expressing genes combining PIKFYVE and NanoLuc, followed by culturing 100 μl (2×10^5 cells/ml) each in 96-well plates (Corning, 3917).
10× compounds according to Examples or Comparative Examples prepared by concentration in 1× NanoBRET™ tracer reagent and DMSO were reacted in 96-well plates and incubated for 2 hours in a 37° C., 5% CO2 incubator.
After the reaction was completed, 3× Complete NanoBRET™ Nano-Glo Substrate solution was added to each well, and the reaction was allowed to run for 2-3 minutes at room temperature before BRET was measured using a GloMax Discover Multimode Microplate Reader (Promega).

Row | ADP-Glo kinase assay (%, 10 nM) [1] [%] | IC50 [2] [nM] | Compound
1 | 69.26 | 10 to 20 | Cc1cccc(/C=N/Nc2nc(N3CCOCC3)nc3c2ncn3CC(C)C)c1 [Example 17, (E)-4-(9-isobutyl-6-(2-(3-methylbenzylidene)hydrazinyl)-9H-purin-2-yl)morpholine]
2 | 89.87 | ≤ 10 | Cc1cccc(/C=N/Nc2nc(N3CCOCC3)nc3c2ncn3CCc2ccccc2)c1 [Example 18, (E)-4-(6-(2-(3-methylbenzylidene)hydrazinyl)-9-phenethyl-9H-purin-2-yl)morpholine]
3 | 78.53 | 10 to 20 | Cc1cccc(/C=N/Nc2nc(N3CCOCC3)nc3c2ncn3Cc2ccccn2)c1 [Example 20, (E)-4-(6-(2-(3-methylbenzylidene)hydrazinyl)-9-(pyridin-2-ylmethyl)-9H-purin-2-yl)morpholine]
4 | 60.95 | 20 to 30 | Cc1cccc(/C=N/Nc2nc(N3CCOCC3)nc3c2ncn3CC2CC2)c1 [Example 21, (E)-4-(9-(cyclopropylmethyl)-6-(2-(3-methylbenzylidene)hydrazinyl)-9H-purin-2-yl)morpholine]
5 | 66.19 | 10 to 20 | Cc1cccc(/C=N/Nc2nc(N3CCOCC3)nc3c2ncn3CC(=O)c2ccccc2)c1 [Example 22, (E)-2-(6-(2-(3-methylbenzylidene)hydrazinyl)-2-morpholino-9H-purin-9-yl)-1-phenylethan-1-one]
6 | 72.46 | 10 to 20 | Cc1cccc(/C=N/Nc2nc(N3CCOCC3)nc3c2ncn3CC(=O)c2ccc(Cl)cc2)c1 [Example 25, (E)-1-(4-chlorophenyl)-2-(6-(2-(3-methylbenzylidene)hydrazinyl)-2-morpholino-9H-purin-9-yl)ethan-1-one]
7 | 80.87 | 10 to 20 | Cc1cccc(/C=N/Nc2nc(N3CCOCC3)nc3c2ncn3CC(F)(F)c2ccccn2)c1 [Example 26, (E)-4-(9-(2,2-difluoro-2-(pyridin-2-yl)ethyl)-6-(2-(3-methylbenzylidene)hydrazinyl)-9H-purin-2-yl)morpholine]
8 | 65.48 | 20 to 30 | Cc1cccc(/C=N/Nc2nc(N3CCOCC3)nc3c2ncn3CC(=O)c2cccnc2)c1 [Example 28, (E)-2-(6-(2-(3-methylbenzylidene)hydrazinyl)-2-morpholino-9H-purin-9-yl)-1-(pyridin-3-yl)ethan-1-one]
9 | 76.90 | 10 to 20 | Cc1cccc(/C=N/Nc2nc(N3CCOCC3)nc3c2ncn3CC(=O)c2cccn2C)c1 [Example 30, (E)-1-(1-methyl-1H-pyrrol-2-yl)-2-(6-(2-(3-methylbenzylidene)hydrazinyl)-2-morpholino-9H-purin-9-yl)ethan-1-one]
10 | 59.60 | 20 to 30 | Cc1cccc(/C=N/Nc2nc(N3CCOCC3)nc3c2ncn3CC(=O)c2ccncc2)c1 [Example 32, (E)-2-(6-(2-(3-methylbenzylidene)hydrazinyl)-2-morpholino-9H-purin-9-yl)-1-(pyridin-4-yl)ethan-1-one]
11 | 70.11 | 10 to 20 | Cc1cccc(/C=N/Nc2nc(N3CCOCC3)nc3c2ncn3CC(=O)c2ccc(C#N)cc2)c1 [Example 35, (E)-4-(2-(6-(2-(3-methylbenzylidene)hydrazinyl)-2-morpholino-9H-purin-9-yl)acetyl)benzonitrile]
12 | 76.04 | 10 to 20 | Cc1cccc(/C=N/Nc2nc(N3CCOCC3)nc3c2ncn3CC(=O)c2cccc(C#N)c2)c1 [Example 36, (E)-3-(2-(6-(2-(3-methylbenzylidene)hydrazinyl)-2-morpholino-9H-purin-9-yl)acetyl)benzonitrile]
13 | 89.07 | ≤ 10 | COc1ccccc1C(=O)Cn1cnc2c(N/N=C/c3cccc(C)c3)nc(N3CCOCC3)nc21 [Example 37, (E)-1-(2-methoxyphenyl)-2-(6-(2-(3-methylbenzylidene)hydrazinyl)-2-morpholino-9H-purin-9-yl)ethan-1-one]
14 | 86.29 | ≤ 10 | Cc1cccc(/C=N/Nc2nc(N3CCOCC3)nc3c2ncn3CC(=O)c2ccccc2C)c1 [Example 40, (E)-2-(6-(2-(3-methylbenzylidene)hydrazinyl)-2-morpholino-9H-purin-9-yl)-1-(o-tolyl)ethan-1-one]
15 | 76.69 | ≤ 10 | Cc1cccc(/C=N/Nc2nc(N3CCOCC3)nc3c2ncn3CC(=O)c2cccc(C)c2)c1 [Example 41, (E)-2-(6-(2-(3-methylbenzylidene)hydrazinyl)-2-morpholino-9H-purin-9-yl)-1-(m-tolyl)ethan-1-one]
16 | 65.93 | – | Cc1cccc(/C=N/n2cnc3c(Nc4cc(C)n(C)n4)nc(N4CCOCC4)nc32)c1 [Example 188, (E)-N-(1,5-dimethyl-1H-pyrazol-3-yl)-9-((3-methylbenzylidene)amino)-2-morpholino-9H-purin-6-amine]
17 | 78.59 | – | Cc1cccc(Nc2nc(N3CCOCC3)nc3c2ncn3/N=C/c2cccnc2)c1 [Example 190, (E)-2-morpholino-9-((pyridin-3-ylmethylene)amino)-N-(m-tolyl)-9H-purin-6-amine]
18 | 61.25 | – | Cc1cccc(/C=N/n2cnc3c(Nc4cncc(C)c4)nc(N4CCOCC4)nc32)c1 [Example 192, (E)-9-((3-methylbenzylidene)amino)-N-(5-methylpyridin-3-yl)-2-morpholino-9H-purin-6-amine]
19 | 64.35 | – | Cc1cccc(/C=N/n2cnc3c(Nc4ccnc(Cl)c4)nc(N4CCOCC4)nc32)c1 [Example 193, (E)-N-(2-chloropyridin-4-yl)-9-((3-methylbenzylidene)amino)-2-morpholino-9H-purin-6-amine]
20 | 61.38 | – | Cc1cccc(/C=N/n2cnc3c(Nc4cccnc4C)nc(N4CCOCC4)nc32)c1 [Example 194, (E)-9-((3-methylbenzylidene)amino)-N-(2-methylpyridin-3-yl)-2-morpholino-9H-purin-6-amine]
21 | 75.59 | – | Cc1cccc(/C=N/n2cnc3c(Nc4cc(C)no4)nc(N4CCOCC4)nc32)c1 [Example 198, (E)-3-methyl-N-(9-((3-methylbenzylidene)amino)-2-morpholino-9H-purin-6-yl)isoxazol-5-amine]
22 | 53.14 | – | Cc1cccc(CNn2cnc3c(Nc4ccncc4)nc(N4CCOCC4)nc32)c1 [Example 203, N^9-(3-methylbenzyl)-2-morpholino-N^6-(pyridin-4-yl)-9H-purin-6,9-diamine]
23 | 53.74 | – | COc1ccc(Nc2nc(N3CCOCC3)nc3c2nc(C)n3/N=C/c2cccc(C)c2)cc1 [Example 205, (E)-N-(4-methoxyphenyl)-8-methyl-9-((3-methylbenzylidene)amino)-2-morpholino-9H-purin-6-amine]
24 | 53.87 | – | Cc1cccc(/C=N/n2c(C)nc3c(Nc4ccccc4)nc(N4CCOCC4)nc32)c1 [Example 206, (E)-8-methyl-9-((3-methylbenzylidene)amino)-2-morpholino-N-phenyl-9H-purin-6-amine]
25 | 75.57 | – | Cc1cccc(/C=N/n2c(C)nc3c(Nc4ccncc4)nc(N4CCOCC4)nc32)c1 [Example 207, (E)-8-methyl-9-((3-methylbenzylidene)amino)-2-morpholino-N-(pyridin-4-yl)-9H-purin-6-amine]
26 | 71.38 | – | Cc1cccc(/C=N/n2c(C)nc3c(OCCc4ccccn4)nc(N4CCOCC4)nc32)c1 [Example 208, (E)-N-8-methyl-2-morpholino-(6-(2-pyridin-2-yl)ethoxy)-9H-purin-9-yl-1-(m-tolyl)methanimine]
27 | 63.00 | – | Cc1cccc(/C=N/Nc2nc(N3CCOCC3)nc3nc(-c4cccnc4)ccc23)c1 [Example 216, (E)-4-(4-(2-(3-methylbenzylidene)hydrazinyl)-7-(pyridin-3-yl)pyrido[2,3-d]pyrimidin-2-yl)morpholine]
